Measurements published in patent US10246481B2, “Bile acid derivatives and methods for synthesis and use” (City of Hope, priority 2016, dated 2019).

Columns and labels:
phosphorylated AKT = test: Western blot of AKT phosphorylation in mouse primary hepatocytes from wild-type or fxr-/- mice; conditions: serum-starved mouse primary hepatocytes, 10 min
pAKT S473 = test: Western blot of AKT phosphorylation in serum-starved HepG2 cells; assay type: cell-based, human; conditions: 10 min
Description: Cell extracts were used to separate proteins by SDS-PAGE, and Western blot analysis was performed using specific antibodies against phosphorylated AKT and phosphorylated GSK3beta. […] Extracts were analyzed by Western blot using specific antibodies against pAKT S473 (left panel) or pGSK3beta (right panel).
To further investigate the dose dependence of AKT phosphorylation, we treated HepG2 cells with increasing concentrations of 6EUDCA. Serum-starved HepG2 cell extracts were prepared after incubation with different concentrations of 6EUDCA (DMSO/0 M, 1 μM, 3 μM, 10 µM or 30 µM) for 10 min. Extracts were analyzed by Western blot using specific antibodies against pAKT S473 (left panel) or pGSK3beta (right panel).

GST-hFXR = molecular target: T1, GST-hFXR (Homo sapiens, UniProt Q96RI1); conditions: UDCA 1000, 300 or 100 μM; 6EUDCA 100, 30 or 10 μM; 15 or 25 min
T1 sequence (Q96RI1 1-486): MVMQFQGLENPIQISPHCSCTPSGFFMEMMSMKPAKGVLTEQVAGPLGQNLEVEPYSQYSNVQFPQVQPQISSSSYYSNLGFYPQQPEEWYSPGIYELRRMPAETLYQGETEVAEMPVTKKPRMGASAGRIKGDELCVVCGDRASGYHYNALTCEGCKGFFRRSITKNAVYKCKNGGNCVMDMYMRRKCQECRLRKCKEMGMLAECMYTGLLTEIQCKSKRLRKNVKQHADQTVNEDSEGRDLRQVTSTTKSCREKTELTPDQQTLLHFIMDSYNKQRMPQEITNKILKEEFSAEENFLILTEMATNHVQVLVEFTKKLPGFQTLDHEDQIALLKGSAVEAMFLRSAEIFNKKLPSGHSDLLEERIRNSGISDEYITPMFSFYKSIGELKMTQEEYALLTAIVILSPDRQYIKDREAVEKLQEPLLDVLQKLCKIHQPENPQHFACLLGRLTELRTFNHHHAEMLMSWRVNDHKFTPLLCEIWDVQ

FXR target gene SHP = test: qPCR analysis of the FXR target gene SHP in HepG2 cells; assay type: cell-based, human; conditions: serum starved HepG2, overnight; 100 μM UDCA, 10 μM 6EUDCA; normalized with 36b4

SMILES | phosphorylation of AKT in fxr-/- hepatocytes (phosphorylated AKT) | phosphorylation of AKT in wild-type hepatocytes (phosphorylated AKT) | dose dependence of AKT phosphorylation (pAKT S473; HepG2, 1 μM, 3 μM, 10 μM or 30 μM) | induction of AKT phosphorylation (pAKT S473; serum starved HepG2 cells) | binding to FXR in TR-FRET assay (reduction in fluorescence signal of DY246) (GST-hFXR) | induction of the FXR target gene SHP (qPCR) (FXR target gene SHP)
C[C@H](CCC(=O)O)[C@H]1CC[C@H]2[C@@H]3[C@@H](O)C[C@@H]4C[C@H](O)CC[C@]4(C)[C@H]3CC[C@]12C [UDCA, Ursodeoxycholic acid, reference compound] | not in fxr−/− hepatocytes | induced phosphorylation of AKT in wild-type hepatocytes |  |  |  | 
CC[C@H]1[C@H](O)[C@@H]2[C@H](CC[C@]3(C)[C@@H]([C@H](C)CCC(=O)O)CC[C@@H]23)[C@@]2(C)CC[C@@H](O)C[C@@H]12 [6EUDCA, 3α, 7β-Dihydroxy-6α-ethyl-5β-cholan-24-oic acid] | not in fxr−/− hepatocytes | induced phosphorylation of AKT in wild-type hepatocytes | dose dependent | effective in inducing AKT phosphorylation | binds FXR with higher affinity | neither UDCA nor 6EUDCA could induce the FXR target gene SHP
